Data as given in US20140179664A1, “Heterocyclyl Pyrimidine Analogues As JAK Inhibitors” (Cellzome Limited, priority 2011, published 2014).
pIC50: −log10 of the molar value.

Assays:
JAK2 = target: T1, JAK2 (Homo sapiens, UniProt O60674); experiment: Kinobeads assay, JAK2; assay type: binding; conditions: mixed Molt4/Ramos lysate, read-out: Inhibition values (IC50) JAK2
T1 construct: endogenous in cells; host or cells: Molt4 (ATCC CRL-1582) and Ramos (ATCC CRL-1596), mixed lysate 1:2
Experimental: (§1) The compounds of the present invention as described in the previous examples were tested in a Kinobeads™ assay as described for ZAP-70 (WO-A 2007/137867). Briefly, test compounds (at various concentrations) and the affinity matrix with the immobilized aminopyrido-pyrimidine ligand 24 were added to cell lysate aliquots and allowed to bind to the proteins in the lysate sample. After the incubation time the beads with captured proteins were separated from the lysate. Bound proteins were then eluted and the presence of JAK1, JAK2, JAK3 and TYK2 was detected and quantified using specific antibodies in a dot blot procedure and the Odyssey infrared detection system. Dose response curves for individual kinases were generated and IC50 values calculated. Kinobeads™ assays for ZAP-70 (WO-A 2007/137867) and for kinase selectivity profiling (WO-A 2006/134056) have been previously described.
(§2) The affinity matrix was washed two times with 15 mL of lx DP buffer containing 0.2% NP40 (IGEPAL® CA-630, Sigma, #13021) and then resuspended in 1×DP buffer containing 0.2% NP40 (3% beads slurry).
(§3) 5×DP buffer: 250 mM Tris-HCl pH 7.4, 25% Glycerol, 7.5 mM MgCl2, 750 mM NaCl, 5 mM Na3VO4; filter the 5×DP buffer through a 0.22 μm filter and store in aliquots at −80° C. The 5×DP buffer is diluted with H2O to 1×DP buffer containing 1 mM DTT and 25 mM NaF.
(§4) Stock solutions of test compounds were prepared in DMSO. In a 96 well plate […] solution of diluted test compounds at 5 mM in DMSO were prepared. Starting with this solution a 1:3 dilution series (9 steps) was prepared. For control experiments (no test compound) a buffer containing 2% DMSO was used.
(§5) Molt4 cells (ATCC catalogue number CRL-1582) and Ramos cells (ATCC catalogue number CRL-1596) were grown in 1 L Spinner flasks (Integra Biosciences, #182101) in suspension in RPMI 1640 medium (Invitrogen, #21875-034) supplemented with 10% Fetal Bovine Serum (Invitrogen) at a density between 0.15×10^6 and 1.2×10^6 cells/mL. Cells were harvested by centrifugation, washed once with 1×PBS buffer (Invitrogen, #14190-094) and cell pellets were frozen in liquid nitrogen and subsequently stored at −80° C. Cells were homogenized in a Potter S homogenizer in lysis buffer: 50 mM Tris-HCl, 0.8% NP40, 5% glycerol, 150 mM NaCl, 1.5 mM MgCl2, 25 mM NaF, 1 mM sodium vanadate, 1 mM DTT, pH 7.5. One complete EDTA-free tablet (protease inhibitor cocktail, Roche Diagnostics, 1873580) per 25 mL buffer was added. The material was dounced 10 times using a mechanized POTTER S, transferred to 50 mL falcon tubes, incubated for 30 minutes on ice and spun down for 10 minutes at 20,000 g at 4° C. (10,000 rpm in Sorvall SLA600, precooled). The supernatant was transferred to an ultracentrifuge (UZ)-polycarbonate tube (Beckmann, 355654) and spun for 1 hour at 100.000 g at 4° C. (33.500 rpm in Ti50.2, precooled). The supernatant was transferred again to a fresh 50 mL falcon tube, the protein concentration was determined by a Bradford assay (BioRad) and samples containing 50 mg of protein per aliquot were prepared. The samples were immediately used for experiments or frozen in liquid nitrogen and stored frozen at −80° C.
(§6) Cell lysate (approximately 50 mg protein per plate) was thawed in a water bath at room temperature and then stored on ice. To the thawed cell lysate 1×DP 0.8% NP40 buffer containing protease inhibitors (1 tablet for 25 mL buffer; EDTA-free protease inhibitor cocktail; Roche Diagnostics 1873580) was added in order to reach a final protein concentration of 10 mg/mL total protein. The diluted cell lysate was stored on ice. Mixed Molt4/Ramos lysate was prepared by combining one volume of Molt4 lysate and two volumes of Ramos lysate (ratio 1:2).
(§7) To a 96 well filter plate (Multiscreen HTS, BV Filter Plates, Millipore #MSBVN1250) were added per well: 100 μL affinity matrix (3% beads slurry), […], of compound solution, and 50 μL of diluted lysate. […]

JAK3 = target: T2, JAK3 (Homo sapiens, UniProt P52333); experiment: Kinobeads assay, JAK3; assay type: binding; conditions: mixed Molt4/Ramos lysate, read-out: Inhibition values (IC50) JAK3
T2 construct: endogenous in cells; host or cells: Molt4 (ATCC CRL-1582) and Ramos (ATCC CRL-1596), mixed lysate 1:2
T2 sequence (P52333 1-1124): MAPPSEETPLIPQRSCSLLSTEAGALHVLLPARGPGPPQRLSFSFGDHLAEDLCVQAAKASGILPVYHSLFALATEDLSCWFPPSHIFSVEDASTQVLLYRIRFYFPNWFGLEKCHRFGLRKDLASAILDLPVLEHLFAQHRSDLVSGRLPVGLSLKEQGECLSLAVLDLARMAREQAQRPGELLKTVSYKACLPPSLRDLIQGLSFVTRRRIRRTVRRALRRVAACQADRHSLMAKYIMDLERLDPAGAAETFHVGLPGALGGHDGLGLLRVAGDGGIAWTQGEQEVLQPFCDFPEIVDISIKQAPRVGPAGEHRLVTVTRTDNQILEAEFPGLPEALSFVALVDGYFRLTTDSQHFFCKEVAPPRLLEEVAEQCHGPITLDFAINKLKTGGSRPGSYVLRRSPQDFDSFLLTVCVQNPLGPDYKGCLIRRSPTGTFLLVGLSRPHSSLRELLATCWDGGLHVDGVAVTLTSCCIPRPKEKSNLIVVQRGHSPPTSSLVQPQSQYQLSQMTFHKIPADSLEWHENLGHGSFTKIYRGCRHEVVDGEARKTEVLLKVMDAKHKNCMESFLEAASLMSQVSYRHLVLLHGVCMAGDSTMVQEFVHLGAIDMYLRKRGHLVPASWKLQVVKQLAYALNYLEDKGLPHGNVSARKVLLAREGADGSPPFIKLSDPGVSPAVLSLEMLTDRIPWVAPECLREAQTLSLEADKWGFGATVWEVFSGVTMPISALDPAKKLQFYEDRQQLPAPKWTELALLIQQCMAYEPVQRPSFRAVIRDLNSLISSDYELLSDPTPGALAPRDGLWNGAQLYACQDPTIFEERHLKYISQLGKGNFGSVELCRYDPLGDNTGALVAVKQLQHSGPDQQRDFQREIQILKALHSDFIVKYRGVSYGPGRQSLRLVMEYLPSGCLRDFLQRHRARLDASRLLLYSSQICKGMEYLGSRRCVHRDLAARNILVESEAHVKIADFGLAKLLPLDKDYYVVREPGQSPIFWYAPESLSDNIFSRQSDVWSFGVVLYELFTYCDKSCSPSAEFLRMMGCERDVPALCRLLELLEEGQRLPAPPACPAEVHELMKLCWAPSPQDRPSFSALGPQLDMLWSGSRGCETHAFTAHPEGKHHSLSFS
Experimental: as §1, §2, §3, §4, §5, §6, §7

T1 sequence (O60674 whole entry): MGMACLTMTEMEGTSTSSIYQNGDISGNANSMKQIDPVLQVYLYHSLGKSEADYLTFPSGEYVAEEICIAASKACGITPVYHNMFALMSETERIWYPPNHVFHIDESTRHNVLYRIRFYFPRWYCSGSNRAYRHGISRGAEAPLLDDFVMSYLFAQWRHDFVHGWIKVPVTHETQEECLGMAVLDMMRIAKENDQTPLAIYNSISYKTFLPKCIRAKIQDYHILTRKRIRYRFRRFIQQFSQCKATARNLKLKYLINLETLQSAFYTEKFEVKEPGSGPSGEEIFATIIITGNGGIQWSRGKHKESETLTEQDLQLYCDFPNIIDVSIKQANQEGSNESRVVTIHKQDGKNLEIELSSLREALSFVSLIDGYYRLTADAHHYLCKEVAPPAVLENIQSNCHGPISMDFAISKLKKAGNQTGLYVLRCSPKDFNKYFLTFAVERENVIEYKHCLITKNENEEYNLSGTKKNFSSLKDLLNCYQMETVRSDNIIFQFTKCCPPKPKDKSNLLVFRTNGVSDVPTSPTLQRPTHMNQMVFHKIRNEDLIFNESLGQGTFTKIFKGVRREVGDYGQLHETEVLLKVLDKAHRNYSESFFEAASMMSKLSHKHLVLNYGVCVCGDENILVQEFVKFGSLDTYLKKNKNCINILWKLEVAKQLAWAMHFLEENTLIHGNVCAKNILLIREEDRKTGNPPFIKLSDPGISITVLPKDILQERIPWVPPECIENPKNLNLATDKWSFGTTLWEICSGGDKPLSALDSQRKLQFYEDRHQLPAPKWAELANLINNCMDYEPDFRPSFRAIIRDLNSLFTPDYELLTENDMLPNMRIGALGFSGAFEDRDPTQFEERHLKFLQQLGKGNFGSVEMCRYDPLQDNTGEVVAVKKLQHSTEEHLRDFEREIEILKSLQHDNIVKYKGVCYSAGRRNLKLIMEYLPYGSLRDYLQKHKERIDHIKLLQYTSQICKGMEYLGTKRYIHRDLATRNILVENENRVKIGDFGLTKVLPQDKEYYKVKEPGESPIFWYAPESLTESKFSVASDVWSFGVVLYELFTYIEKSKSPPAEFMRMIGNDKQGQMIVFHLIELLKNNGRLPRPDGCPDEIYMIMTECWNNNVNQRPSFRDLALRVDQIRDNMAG

SMILES	pIC50 (JAK2)	pIC50 (JAK3)
OCCn1cc(Nc2ncc(Cl)c(NC(CO)c3ccccc3Cl)n2)cn1 (centres unmarked) [Compound 120]	5.00 to 6.00	> 7.00
OC[C@@H](Nc1nc(Nc2cnn(CC(F)F)c2)ncc1Cl)c1ccccc1F [Compound 165]	5.00 to 6.00	> 7.00
CNC(=O)Cn1cc(Nc2ncc(F)c(N[C@H](CO)c3cc(F)cc(F)c3)n2)cn1 [Compound 161]	5.00 to 6.00	> 7.00
CC(C)OCCn1cc(Nc2ncc(Cl)c(N[C@H](CO)c3ccccc3)n2)cn1 [Compound 114]	5.00 to 6.00	> 7.00
Cn1cc(Nc2ncc(Cl)c(NC(CO)c3cccc(N4CCOCC4=O)c3)n2)cn1 (centres unmarked) [Compound 124]	≤ 5.00	> 7.00
CNC(=O)Cn1cc(Nc2ncc(Cl)c(NC(CO)c3ccccc3Cl)n2)cn1 (centres unmarked) [Compound 119]	5.00 to 6.00	> 7.00
OCCn1cc(Nc2ncc(F)c(N[C@H](CO)c3cc(F)ccc3F)n2)cn1 [Compound 147]	6.00 to 7.00	> 7.00
CC(C)n1cc(Nc2ncc(Cl)c(N[C@H](CO)c3ccccc3F)n2)cn1 [Compound 110]	6.00 to 7.00	> 7.00
Cn1cc(Nc2ncc(F)c(N[C@H](CO)c3cc(F)cc(-c4cnn(C)c4)c3)n2)cn1 [Compound 150]	≤ 5.00	6.00 to 7.00
Cn1cc(Nc2ncc(Cl)c(NC(CO)c3cc(F)ccc3F)n2)cn1 (centres unmarked) [Compound 129]	6.00 to 7.00	> 7.00
Cn1cc(Nc2ncc(Cl)c(NC(CO)c3cc(F)cc(F)c3)n2)cn1 (centres unmarked) [Compound 121]	5.00 to 6.00	> 7.00
Cc1cnc(Nc2cnn(CC(F)F)c2)nc1N[C@H](CO)c1cc(F)ccc1F [Compound 166]	5.00 to 6.00	6.00 to 7.00
Cn1cc(-c2cc(F)cc([C@@H](CO)Nc3nc(Nc4cnn(CCO)c4)ncc3Cl)c2)cn1 [Compound 152]	5.00 to 6.00	> 7.00
O=C(Cn1cc(Nc2ncc(Cl)c(N[C@H](CO)c3ccccc3F)n2)cn1)N1CCOCC1 [Compound 103]	5.00 to 6.00	> 7.00
OCCn1cc(Nc2ncc(F)c(N[C@H](CO)c3ccccc3)n2)cn1 [Compound 10]	≤ 5.00	> 7.00
CNC(=O)Cn1cc(Nc2ncc(F)c(N[C@H](CO)c3ccccc3)n2)cn1 [Compound 111]	≤ 5.00	> 7.00
CNC(=O)Cn1cc(Nc2ncc(Cl)c(N[C@H](CO)c3cc(F)cc(-c4cnn(C)c4)c3)n2)cn1 [Compound 156]	5.00 to 6.00	> 7.00
O=C(Cn1cc(Nc2ncc(Cl)c(N[C@H](CO)c3cccnc3)n2)cn1)N1CCOCC1 [Compound 104]	5.00 to 6.00	> 7.00
COc1ccccc1[C@@H](CO)Nc1nc(Nc2cnn(C(C)C)c2)ncc1Cl [Compound 105]	6.00 to 7.00	> 7.00

SMILES	pIC50 (JAK2)	pIC50 (JAK3)
CCn1cc(Nc2ncc(Cl)c(N[C@H](CO)c3cccc(OC)c3)n2)cn1 [Compound 96]	≤ 5.00	> 7.00
CNC(=O)Cn1cc(Nc2ncc(Cl)c(N[C@H](CO)c3ccccc3F)n2)cn1 [Compound 100]	5.00 to 6.00	> 7.00
Cn1cc(Nc2ncc(F)c(N[C@H](CO)c3cc(F)cc(F)c3)n2)cn1 [Compound 158]	5.00 to 6.00	> 7.00
CCn1cc(Nc2ncc(Cl)c(N[C@H](CO)c3ccccc3F)n2)cn1 [Compound 109]	5.00 to 6.00	> 7.00
CNC(=O)Cn1cc(Nc2ncc(F)c(N[C@H](CO)c3cccc(-c4cnn(C)c4)c3)n2)cn1 [Compound 155]	≤ 5.00	6.00 to 7.00
CCC(Nc1nc(Nc2cnn(CC(N)=O)c2)ncc1Cl)c1ccccc1F (centres unmarked) [Compound 126]	5.00 to 6.00	6.00 to 7.00
Cn1cc(Nc2ncc(Cl)c(N[C@H](CO)c3cc(F)cc(F)c3)n2)cn1 [Compound 142]	6.00 to 7.00	> 7.00
Cn1cc(Nc2ncc(Cl)c(N[C@H](CO)c3cccc(N4CCOCC4=O)c3F)n2)cn1 [Compound 162]	≤ 5.00	> 7.00
CNC(=O)Cn1cc(Nc2ncc(Cl)c(N[C@H](CO)c3cccc(-c4cnn(C)c4)c3)n2)cn1 [Compound 154]	5.00 to 6.00	> 7.00
Cn1cc(Nc2ncc(F)c(N[C@H](CO)c3cc(F)ccc3F)n2)cn1 [Compound 146]	5.00 to 6.00	> 7.00
NC(=O)Cn1cc(Nc2ncc(F)c(N[C@H](CO)c3ccccc3)n2)cn1 [Compound 108]	≤ 5.00	6.00 to 7.00
CNC(=O)Cn1cc(Nc2ncc(F)c(N[C@H](CO)c3cc(F)ccc3F)n2)cn1 [Compound 148]	5.00 to 6.00	> 7.00
COc1ccccc1[C@@H](CO)Nc1nc(Nc2cnn(CC(=O)N3CCOCC3)c2)ncc1Cl [Compound 101]	5.00 to 6.00	> 7.00
Cc1cnc(Nc2cnn(C)c2)nc1N[C@H](CO)c1cc(F)ccc1F [Compound 163]	6.00 to 7.00	> 7.00
Cn1cc(Nc2ncc(Cl)c(N[C@H](CO)c3cc(F)ccc3F)n2)cn1 [Compound 139]	6.00 to 7.00	> 7.00
CN1CCC(n2cc(Nc3ncc(Cl)c(N[C@H](CO)c4ccccc4)n3)cn2)C1=O (some centres unmarked) [Compound 135]	5.00 to 6.00	> 7.00
CCn1cc(Nc2ncc(Cl)c(N[C@H](CO)c3cccnc3)n2)cn1 [Compound 97]	5.00 to 6.00	> 7.00
Cn1cc(Nc2ncc(C(F)(F)F)c(N[C@H](CO)c3ccccc3)n2)cn1 [Compound 6]	≤ 5.00	> 7.00
